Tests used:
[1] = system: Candida glabrata (ATCC15545; JEY10028) wild type; assay: Compound screening: proliferation (OD600, 24 h); type: cell-based; conditions: wild-type C. glabrata (JEY10028), SD media
Procedure: For experiments, yeast cells were routinely cultured in YPD media and incubated at 30°C overnight. The cultures were refreshed the next day for 2–3 h in YNB −iron (0.69% yeast nitrogen base without amino acids or iron, with 2% dextrose) media, unless stated, at the same temperature. After incubation, the optical density (OD600) of the cell cultures was measured and adjusted to 0.15.
The collismycin compounds were provided by EntreChem (Spain) at stock solutions of 20 mM in DMSO and stored at −20°C. For serial dilutions of the compounds in clear 96-well plates, intermediate stock concentrations of 100 µM of compound (100 µL for each technical replicate) were prepared in YNB −iron media unless otherwise specified, and 1:1 serial dilutions were performed using a multi-channel pipette. Fifty microliters of cell culture (OD600 = 0.15) were added to the wells containing the compounds, for a total volume of 150 µL. The final concentrations in the wells (with three technical replicates) were equivalent to 0.5, 1, 2.1, 4.2, 8.4, 16.7, 33.3, and 66.6 µM. The OD600 of each well was quantified, and the plates were incubated inside plastic bags (to prevent evaporation) at 30°C for 24 h, after which the final OD600 was measured. The EC50 was calculated using the four-parameter log logistic function with the drc package in R ([57]).

C. albicans WT = conditions: 24 h
[2] = Candida albicans, read-out: C. albicans WT Inhibition (%)

Structure (SMILES) | antifungal activity [1] | susceptibility to fluconazole alone (C. albicans WT; YNB −iron) | inhibition at 3.13 µM (C. albicans WT; [2]) [%] | inhibition at 6.25 µM (C. albicans WT; [2]) [%] | inhibition at 25 µM (C. albicans WT; [2]) [%] | inhibition at 50 µM (C. albicans WT; [2]) [%] | inhibition at 100 µM (C. albicans WT; [2]) [%]
COc1cc(-c2ccccn2)nc(CO)c1SC [ColH, collismycin H] | lacked antifungal activity even at very high concentrations |  |  |  |  |  | 
OC(Cn1cncn1)(Cn1cncn1)c1ccc(F)cc1F [Fluconazole, fluconazole] |  | only susceptible to high concentrations | -1.65 | 9.43 | 14.8 | 15.4 | 19.6
